In patent US20100041089A1, “IMPROVED METHOD FOR DETECTING CHEMICAL […]” (priority 2006, published 2010):

Tested on: yeast genes (expressed mRNA)
Experiment: DNA chip measurement of expressed mRNA of yeast genes after culture with a toxic chemical substance
Format: cell-based, Saccharomyces cerevisiae S288C
In short: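 Expression is given as treated/untreated fluorescence ratio on a whole-genome yeast DNA chip, a ratio of two or more being significant. Log-phase S288C cultures in YPD at 25 °C received the chemical for 2 h at a dose that slows growth without killing. mRNA was reverse-transcribed with Cy3- or Cy5-dUTP.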

In the case of C=CC=O [(14), Acrolein], the “The level of expressed mRNA in the presence of chemical substance/The level of expressed mRNA in the absence of chemical substance” value (yeast gene YGL053W, cultured two hours with substance) is reported as 1.1, the “The level of expressed mRNA in the presence of chemical substance/The level of expressed mRNA in the absence of chemical substance” value (yeast gene YGL091C, DNA repair protein genes, cultured two hours with substance) is reported as 3.1 and the “The level of expressed mRNA in the presence of chemical substance/The level of expressed mRNA in the absence of chemical substance” value (yeast gene YGL121C, cultured two hours with substance) is reported as 5.8. For the same compound, the “The level of expressed mRNA in the presence of chemical substance/The level of expressed mRNA in the absence of chemical substance” value (yeast gene YGL136C, cultured two hours with substance) was 2.3, the “The level of expressed mRNA in the presence of chemical substance/The level of expressed mRNA in the absence of chemical substance” value (yeast gene YGL199C, cultured two hours with substance) was 0.8 and the “The level of expressed mRNA in the presence of chemical substance/The level of expressed mRNA in the absence of chemical substance” value (yeast gene YGR043C, cultured for two hours with substance) was 4.1. For the same compound, the “The level of expressed mRNA in the presence of chemical substance/The level of expressed mRNA in the absence of chemical substance” value (yeast gene YGR064W, cultured two hours with the chemical substance) was 2.1, the “The level of expressed mRNA in the presence of chemical substance/The level of expressed mRNA in the absence of chemical substance” value (yeast gene YGR101W, cultured two hours with substance) was 0.9 and the “The level of expressed mRNA in the presence of chemical substance/The level of expressed mRNA in the absence of chemical substance” value (yeast gene YGR110W, cultured two hours with substance) was 2.8. For the same compound, the “The level of expressed mRNA in the presence of chemical substance/The level of expressed mRNA in the absence of chemical substance” value (yeast gene YGR130C, cultured two hours with substance) was 0.9, the “The level of expressed mRNA in the presence of chemical substance/The level of expressed mRNA in the absence of chemical substance” value (yeast gene YGR146C, cultured two hours with substance) was 1.3 and the “The level of expressed mRNA in the presence of chemical substance/The level of expressed mRNA in the absence of chemical substance” value (yeast gene YGR154C, cultured two hours with substance) was 2.2. For the same compound, the “The level of expressed mRNA in the presence of chemical substance/The level of expressed mRNA in the absence of chemical substance” value (yeast gene YGR209C (detoxification protein gene)) was 5.0, the “The level of expressed mRNA in the presence of chemical substance/The level of expressed mRNA in the absence of chemical substance” value (yeast gene YGR221C, cultured two hours with substance) was 1.4 and the “The level of expressed mRNA in the presence of chemical substance/The level of expressed mRNA in the absence of chemical substance” value (yeast gene YHR029C, cultured two hours with substance) was 3.5. For the same compound, the “The level of expressed mRNA in the presence of chemical substance/The level of expressed mRNA in the absence of chemical substance” value (yeast gene YHR138C, cultured two hours with substance) was 3.4, the “The level of expressed mRNA in the presence of chemical substance/The level of expressed mRNA in the absence of chemical substance” value (yeast gene YHR179W, cultured for two hours with substance) was 5.8 and the “The level of expressed mRNA in the presence of chemical substance/The level of expressed mRNA in the absence of chemical substance” value (yeast gene YHR199C, cultured two hours with substance) was 2.0. For the same compound, the “The level of expressed mRNA in the presence of chemical substance/The level of expressed mRNA in the absence of chemical substance” value (yeast gene YHR209W, cultured two hours with substance) was 2.2, the “The level of expressed mRNA in the presence of chemical substance/The level of expressed mRNA in the absence of chemical substance” value (yeast gene YIL015W) was 5.9 and the “The level of expressed mRNA in the presence of chemical substance/The level of expressed mRNA in the absence of chemical substance” value (yeast gene YIL023C, cultured two hours with substance) was 0.7. The “The level of expressed mRNA in the presence of chemical substance/The level of expressed mRNA in the absence of chemical substance” value (yeast gene YIL024C, cultured two hours with substance) was 1.5, the “The level of expressed mRNA in the presence of chemical substance/The level of expressed mRNA in the absence of chemical substance” value (yeast gene YIL041W, cultured two hours with substance) was 1.3 and the “The level of expressed mRNA in the presence of chemical substance/The level of expressed mRNA in the absence of chemical substance” value (yeast gene YIL057C, cultured two hours with the chemical substance) was 1.5. For the same compound, the “The level of expressed mRNA in the presence of chemical substance/The level of expressed mRNA in the absence of chemical substance” value (yeast gene YIL087C, cultured two hours with substance) was 1.3, the “The level of expressed mRNA in the presence of chemical substance/The level of expressed mRNA in the absence of chemical substance” value (yeast gene YIL117C, cultured two hours with substance) was 2.6 and the “The level of expressed mRNA in the presence of chemical substance/The level of expressed mRNA in the absence of chemical substance” value (yeast gene YJL020C, cultured two hours with substance) was 1.2. The “The level of expressed mRNA in the presence of chemical substance/The level of expressed mRNA in the absence of chemical substance” value (yeast gene YJL036W, cultured two hours with substance) was 1.5, the “The level of expressed mRNA in the presence of chemical substance/The level of expressed mRNA in the absence of chemical substance” value (yeast gene YJL057C, cultured two hours with substance) was 1.6 and the “The level of expressed mRNA in the presence of chemical substance/The level of expressed mRNA in the absence of chemical substance” value (yeast gene YJL066C, cultured two hours with substance) was 1.0. The “The level of expressed mRNA in the presence of chemical substance/The level of expressed mRNA in the absence of chemical substance” value (yeast gene YJL082W, cultured two hours with substance) was 0.5, the “The level of expressed mRNA in the presence of chemical substance/The level of expressed mRNA in the absence of chemical substance” value (yeast gene YJL108C, cultured two hours with substance) was 1.0 and the “The level of expressed mRNA in the presence of chemical substance/The level of expressed mRNA in the absence of chemical substance” value (yeast gene YJL149W, cultured two hours with substance) was 1.1. The “The level of expressed mRNA in the presence of chemical substance/The level of expressed mRNA in the absence of chemical substance” value (yeast gene YJL151C, cultured two hours with substance) was 1.3, the “The level of expressed mRNA in the presence of chemical substance/The level of expressed mRNA in the absence of chemical substance” value (yeast gene YJL152W, cultured two hours with substance) was 1.4 and the “The level of expressed mRNA in the presence of chemical substance/The level of expressed mRNA in the absence of chemical substance” value (yeast gene YJL161W, cultured two hours with substance) was 2.2. For the same compound, the “The level of expressed mRNA in the presence of chemical substance/The level of expressed mRNA in the absence of chemical substance” value (yeast gene YJL171C, cultured two hours with substance) was 1.0, the “The level of expressed mRNA in the presence of chemical substance/The level of expressed mRNA in the absence of chemical substance” value (yeast gene YJL186W, cultured two hours with substance) was 0.8 and the “The level of expressed mRNA in the presence of chemical substance/The level of expressed mRNA in the absence of chemical substance” value (yeast gene YJR008W, cultured two hours with substance) was 1.2. For the same compound, the “The level of expressed mRNA in the presence of chemical substance/The level of expressed mRNA in the absence of chemical substance” value (yeast gene YJR048W, cultured for two hours with substance) was 2.5, the “The level of expressed mRNA in the presence of chemical substance/The level of expressed mRNA in the absence of chemical substance” value (yeast gene YJR054W, cultured two hours with substance) was 1.2 and the “The level of expressed mRNA in the presence of chemical substance/The level of expressed mRNA in the absence of chemical substance” value (yeast gene YKL065C, cultured two hours with substance) was 2.1.
